Source: BindingDB's records for patent US10550100 (GALAPAGOS NV, 2020)

Molecular target: T1, A disintegrin and metalloproteinase with thrombospondin motifs 6 (Human, UniProt Q9UKP5)
T1 sequence (Q9UKP5 whole entry): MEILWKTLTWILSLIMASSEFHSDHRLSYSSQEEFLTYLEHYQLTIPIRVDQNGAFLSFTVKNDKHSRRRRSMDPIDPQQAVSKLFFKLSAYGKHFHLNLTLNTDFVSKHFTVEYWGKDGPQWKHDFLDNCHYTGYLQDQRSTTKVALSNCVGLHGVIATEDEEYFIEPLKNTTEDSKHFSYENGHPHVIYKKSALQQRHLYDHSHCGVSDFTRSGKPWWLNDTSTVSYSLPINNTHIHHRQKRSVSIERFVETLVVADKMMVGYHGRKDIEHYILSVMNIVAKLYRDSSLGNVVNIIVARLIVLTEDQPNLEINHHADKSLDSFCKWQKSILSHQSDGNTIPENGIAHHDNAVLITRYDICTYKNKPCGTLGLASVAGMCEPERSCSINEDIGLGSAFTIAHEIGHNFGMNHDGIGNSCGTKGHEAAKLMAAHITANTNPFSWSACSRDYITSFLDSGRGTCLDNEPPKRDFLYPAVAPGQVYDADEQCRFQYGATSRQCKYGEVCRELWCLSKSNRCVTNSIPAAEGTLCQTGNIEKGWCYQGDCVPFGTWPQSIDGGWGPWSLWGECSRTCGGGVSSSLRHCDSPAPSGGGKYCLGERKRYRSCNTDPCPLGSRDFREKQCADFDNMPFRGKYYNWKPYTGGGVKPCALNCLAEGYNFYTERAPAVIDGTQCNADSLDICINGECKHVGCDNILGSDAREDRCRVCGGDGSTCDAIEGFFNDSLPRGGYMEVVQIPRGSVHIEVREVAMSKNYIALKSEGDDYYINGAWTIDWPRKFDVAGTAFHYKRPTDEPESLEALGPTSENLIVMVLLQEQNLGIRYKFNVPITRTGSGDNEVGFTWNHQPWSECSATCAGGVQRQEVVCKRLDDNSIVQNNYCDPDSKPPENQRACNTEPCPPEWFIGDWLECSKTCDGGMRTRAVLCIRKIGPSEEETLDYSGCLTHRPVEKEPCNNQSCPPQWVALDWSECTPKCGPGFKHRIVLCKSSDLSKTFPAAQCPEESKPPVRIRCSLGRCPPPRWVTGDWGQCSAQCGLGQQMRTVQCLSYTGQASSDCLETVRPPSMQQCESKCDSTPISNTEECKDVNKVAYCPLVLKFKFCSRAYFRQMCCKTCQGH
Assay: hADAMTS-6 Assay
Experimental: Without ADAMTS6, the emission of the probe is quenched. If the substrate is cleaved by ADAMTS6, the emission of the probe is not quenched anymore. […] The reaction is started by addition of 10 μL of 1 μM 520 MMP FRET Substrate XII (final concentration, diluted in same buffer as described above) and the mixture is incubated at 37° C. for 2 h. […] After this incubation, cleavage of the substrate is measured using the Envision (Perkin Elmer, exc485/em530).

- IC50: > 100 nM
Structure (SMILES): COc1c(Cl)cc(Cl)cc1C1CCN(C(=O)CC[C@H]2NC(=O)NC2=O)CC1 [US10550100, Compound 70]
